Several values for one entry are separate records, joined by “and”; a condition that tells them apart may be missing. Identical values can stand only once.
Legend:
[1] = Metabolite analysis in plasma after i.v. [11C]phenytoin; type: in vivo, Sprague–Dawley rats; details: for Percentage of intact [11C]phenytoin, plasma: rat plasma, N = 2
Procedure: Chemicals were obtained from Sigma Aldrich (St. Louis, MO, USA) and were used without further purification. All reactions were carried out under an argon atmosphere unless stated otherwise. [^11C]CO2 was produced using an IBA Cyclone 18/9 cyclotron (IBA, Louvain-La-Neuve, Belgium) by the ^14N(p,α)^11C nuclear reaction performed in a 0.5% O2/N2 gas mixture. Water was purified over a Millipore filter (Millipore, Leiden, The Netherlands). The silica gel used as stationary phase for flash column chromatography was grade 9385, 230 to 400 mesh, 60 Å and obtained from Sigma Aldrich. Chemical shifts (δ) of nuclear magnetic resonance (NMR) spectra were defined relative to the signal of the solvent (7.26 for CDCl3 and 2.50 for DMSO-d6) and measured on a Bruker Avance 250 (Bruker, Billerica, MA, USA), with δ reported in parts per million relative to the solvent. Infrared (IR) spectra were obtained using a Shimadzu FTIR-8400 S (Shimadzu, Kyoto, Japan), and wavelengths (ν) are reported in per centimeter and (s), (m) and (w), indicating strong, moderate and weak signal, respectively. Electrospray ionization high-resolution mass spectrometry (ESI-HRMS) was carried out using a Bruker microTOF-Q instrument in positive ion mode (capillary potential of 4.500 V); electrospray ionization mass spectrometry was carried out using an AB Sciex Qtrap 5500 LC-MS/MS instrument (AB Sciex, Foster City, CA, USA) in negative ion mode. Semi-preparative high performance liquid chromatography (HPLC) was performed on an ACE 5-μM C18, 250*10-mm column (Alltech, Nicholasville, KY, USA) using the following settings: wavelength 230 nm, eluent MeCN/H2O/TFA 60/40/0.15 (v/v/v) and flow 4 mL·min^−1 (method A). Analytical HPLC was performed on a Kromasil 100 C18 10-μM (4.6 to 250 mm) column (Grace Alltech, Breda, The Netherlands) with the following settings: wavelength 230 nm, eluent acetonitrile/water/[…] 75/25/0.2 (v/v/v) and flow 1 mL·min^−1 (method B). Metabolite analysis was performed on a Gemini C18 5-μm (10 to 250 mm) column (Phenomenex, Torrance, CA, USA) (method C) with gradient and a mixture of (A) acetonitrile and (B) 0.1% trifluoro acetic acid in H2O as eluent according to the following scheme: 0 min, 90% B at 0.25 mL·min^−1; 0.5 min, 20% B at 4 mL·min^−1; 9.0 min, 30% B at 4 mL·min^−1; 13 min, 30% B at 4 mL·min^−1; 14.0 min, 90% B at 4.0 mL·min^−1 and 15 min, 90% B at 0.25 mL·min^−1. Tetrahydrofuran (THF), which was used during experiments, was distilled over LiAlH4 just prior to the experiments unless stated otherwise.
To study the metabolic profile of [^11C]phenytoin in the plasma and brain, five male Sprague–Dawley rats were injected with 150 to 250 MBq [^11C]phenytoin in the tail vein under isoflurane anesthesia. Three of these animals were pretreated with 15 mg·kg^−1 tariquidar 20 min prior to [^11C]phenytoin administration. Three arterial blood samples of 0.5, 0.8 and 1.2 mL were withdrawn at 10, 30 and 45 min or at 5, 15 and 25 min after [^11C]phenytoin injection, respectively. Immediately following the last blood sample, the rats were euthanized, and the brain was isolated. All blood samples were collected in heparin tubes and centrifuged at 4.000 rpm for 5 min at 4°C (Hettich Universal 16, Depex B.V., The Netherlands). Plasma was separated from blood cells and, between 0.3 and 0.7 mL, was loaded onto a tC-18 Sep-Pak (Waters, The Netherlands) and washed with 20 mL of water. The eluate was defined as the polar radiolabeled metabolite fraction. Thereafter, the tC-18 Sep-Pak was eluted with 1.5 ml of methanol. This eluate was defined as the nonpolar fraction and was analyzed using HPLC method C. Brain tissue was homogenized with an ultrasonic homogenizer (Braunsonic 1510, Kronberg, Germany) in water, under ice cooling, and subsequently centrifuged at 4,000 rpm for 5 min at 4°C. Separated supernatants were loaded onto a tC-18 Sep-Pak and washed with 20 mL water to obtain the polar fraction.

[2] = Metabolite analysis in brain tissue after i.v. [11C]phenytoin; type: in vivo, Sprague–Dawley rats; details: rat brain, N = 2
Procedure: Chemicals were obtained from Sigma Aldrich (St. Louis, MO, USA) and were used without further purification. All reactions were carried out under an argon atmosphere unless stated otherwise. [^11C]CO2 was produced using an IBA Cyclone 18/9 cyclotron (IBA, Louvain-La-Neuve, Belgium) by the ^14N(p,α)^11C nuclear reaction performed in a 0.5% O2/N2 gas mixture. Water was purified over a Millipore filter (Millipore, Leiden, The Netherlands). The silica gel used as stationary phase for flash column chromatography was grade 9385, 230 to 400 mesh, 60 Å and obtained from Sigma Aldrich. Chemical shifts (δ) of nuclear magnetic resonance (NMR) spectra were defined relative to the signal of the solvent (7.26 for CDCl3 and 2.50 for DMSO-d6) and measured on a Bruker Avance 250 (Bruker, Billerica, MA, USA), with δ reported in parts per million relative to the solvent. Infrared (IR) spectra were obtained using a Shimadzu FTIR-8400 S (Shimadzu, Kyoto, Japan), and wavelengths (ν) are reported in per centimeter and (s), (m) and (w), indicating strong, moderate and weak signal, respectively. […]
To study the metabolic profile of [^11C]phenytoin in the plasma and brain, five male Sprague–Dawley rats were injected with 150 to 250 MBq [^11C]phenytoin in the tail vein under isoflurane anesthesia. […] This eluate was defined as the nonpolar fraction and was analyzed using HPLC method C. […]

O=C1N[11C](=O)NC1(c1ccccc1)c1ccccc1 [[^11C]phenytoin]
Percentage of intact [11C]phenytoin, plasma ([1]; 5 min after injection): 60 ± 7% | Percentage of intact [11C]phenytoin, plasma ([1]; 10 min after injection): 50 ± 16% | Percentage of intact [11C]phenytoin, plasma ([1]; 15 min after injection): 38 ± 3% | Percentage of intact [11C]phenytoin, plasma ([1]; 25 min after injection): 28 ± 2% | Percentage of intact [11C]phenytoin, plasma ([1]; 30 min after injection): 32 ± 18% | Percentage of intact [11C]phenytoin, plasma ([1]; 45 min after injection): 19% and 19 ± 8% | Metabolism in tariquidar-treated versus untreated rats ([1]; tariquidar 15 mg·kg^−1, 20 min prior to tracer): no difference in metabolism | Percentage of intact [11C]phenytoin, brain ([2]; 25 min after injection): 95 ± 1% | Percentage of intact [11C]phenytoin, brain ([2]; 45 min after injection): 83% and 83 ± 5%
